# Measured values as given in US20020088018A1, “Transgenic mice containing MAS orphan receptor gene disruptions” (priority 2000, published 2002).
# Test system: mice (wild-type and MAS receptor gene homozygous mutant)
# Test: Metrazol administration test (metrazol dose testing, seizure susceptibility)
# Type: in vivo, mouse
# Conditions: for Dose (mg/kg body weight), Observable: T/C / Dose (mg/kg body weight), Observable: Death / Dose (mg/kg body weight), Observable: Twitch / Dose (mg/kg body weight), Observable: Extension: F2N1 mice; for Dose (mg/kg body weight), Observable: T/C: metrazol dose to T/C seizure; for Dose (mg/kg body weight), Observable: Death: metrazol dose to death; for Dose (mg/kg body weight), Observable: Twitch: metrazol dose to first twitch; for Dose (mg/kg body weight), Observable: Extension: metrazol dose to tonic extension
# Protocol: A metrazol administration test can be used to screen animals for varying susceptibilities to seizures or similar events. For example, a 5 mg/ml solution of metrazol can be infused through the tail vein of a mouse at a rate of, e.g., approximately 0.375 ml/min. The infusion will cause all mice to experience seizures, followed by death. Those mice that enter the seizure stage the soonest are believed to be more prone to seizures.
# The transgenic mice were analyzed for phenotypic changes. […] These characteristics response parameters are: (1) first twitch; (2) tonic/clonic seizure; (3) tonic extension, […]; and (4) death.
# [1] = genotype −/− (MAS homozygous mutant)
structure (smiles),measurement,setting,value
C1CCc2nnnn2CC1 [metrazol],"Dose (mg/kg body weight), Observable: T/C",genotype +/+ (wild-type),37.94 mg/kg body weight
same,"Dose (mg/kg body weight), Observable: Death",genotype +/+ (wild-type),96.27 mg/kg body weight
same,"Dose (mg/kg body weight), Observable: Twitch",genotype +/+ (wild-type),25.59 mg/kg body weight
same,"Dose (mg/kg body weight), Observable: Extension",genotype +/+ (wild-type),75.60 mg/kg body weight
same,"Dose (mg/kg body weight), Observable: T/C",[1],45.28 mg/kg body weight
same,"Dose (mg/kg body weight), Observable: Death",[1],138.55 mg/kg body weight
same,"Dose (mg/kg body weight), Observable: Twitch",[1],33.95 mg/kg body weight
same,"Dose (mg/kg body weight), Observable: Extension",[1],115.89 mg/kg body weight
same,response threshold to metrazol,homozygous mutants as compared to wild-type animals,increased
